Test results from ChEMBL document CHEMBL4043174, “Synthesis, conformational study and antiviral activity of l-like neplanocin derivatives” (Bioorg Med Chem Lett, 2017).
Converted amounts (≈) assume the structure as drawn. The source made the active and inactive calls. The calls are words filed in the database; no cut-off is given here.

Key:
Ebolavirus = assay: Antiviral activity against Ebolavirus; type: functional; conditions: for EC50: Orthoebolavirus
Vero = assay: (§1) Cytotoxicity against African green monkey Vero cells assessed as reduction in cell viability; type: cell-based; conditions: chlorocebus sabaeus, vero
Rift Valley fever virus [1] = assay: Antiviral activity against Rift Valley fever virus; type: functional
West Nile virus [2] = assay: Antiviral activity against West Nile virus; type: functional
unidentified adenovirus = assay: Antiviral activity against Adenovirus; type: functional
[3] = test system: Venezuelan equine encephalitis virus; assay: Antiviral activity against Venezuelan equine encephalitis virus; type: functional
Yellow fever virus [4] = assay: Antiviral activity against Yellow fever virus; type: functional
Chikungunya virus = assay: Antiviral activity against Chikungunya virus; type: functional
Punta Toro virus = assay: Antiviral activity against Punta Toro virus; type: functional
Norovirus = assay: Antiviral activity against Norovirus; type: functional
Zika virus = assay: Antiviral activity against Zika virus; type: functional
Tacaribe virus = assay: Antiviral activity against Tacaribe virus; type: functional; conditions: Mammarenavirus tacaribeense
Measles morbillivirus = assay: Antiviral activity against measles virus; type: functional
[5] = test system: Japanese encephalitis virus; assay: Antiviral activity against Japanese encepahalitis virus; type: functional
Enterovirus C = assay: Antiviral activity against Poliovirus; type: functional
Vaccinia virus = assay: Antiviral activity against vaccinia virus infected in PRK cells assessed as reduction in virus-induced cytopathic effect after 2 to 3 days; type: functional, cell-based; conditions: Orthopoxvirus vaccinia
[6] = test system: Vesicular stomatitis virus; assay: Antiviral activity against vesicular stomatitis virus infected in PRK cells assessed as reduction in virus-induced cytopathic effect after 1 to 2 days; type: functional, cell-based
Usutu virus = assay: Antiviral activity against Usutu virus; type: functional
Dengue virus [7] = assay: Antiviral activity against Dengue virus; type: functional
[8] = test system: Japanese encephalitis virus; assay: Antiviral activity against Japanese encepahalitis virus infected in African green monkey Vero cells; type: functional
West Nile virus [9] = assay: Antiviral activity against West Nile virus infected in African green monkey Vero cells; type: functional
Rift Valley fever virus [10] = assay: Antiviral activity against Rift Valley fever virus infected in African green monkey Vero cells; type: functional
[11] = as §1; type: cell-based; conditions: chlorocebus sabaeus, Vero cells
[12] = test system: Venezuelan equine encephalitis virus; assay: Antiviral activity against Venezuelan equine encephalitis virus infected in African green monkey Vero cells; type: functional
Dengue virus [13] = assay: Antiviral activity against Dengue virus infected in African green monkey Vero cells; type: functional
Yellow fever virus [14] = assay: Antiviral activity against Yellow fever virus infected in African green monkey Vero cells; type: functional

| SMILES | EC50 (Ebolavirus) | Activity (Vero) | Activity (Rift Valley fever virus [1]) | Activity (West Nile virus [2]) | Activity (unidentified adenovirus) | Activity [3] | Activity (Yellow fever virus [4]) | Activity (Chikungunya virus) | Activity (Punta Toro virus) | EC50 (Norovirus) | Activity (Zika virus) | Activity (Tacaribe virus) | Activity (Measles morbillivirus) | Activity [5] | Activity (Enterovirus C) | Activity (Usutu virus) | Activity (Dengue virus [7]) | Activity (Ebolavirus) | also measured |
| --- | --- | --- | --- | --- | --- | --- | --- | --- | --- | --- | --- | --- | --- | --- | --- | --- | --- | --- | --- |
| Nc1nccc2c1ncn2[C@H]1C=C[C@H](O)[C@@H]1O (relative stereo) | 29.5 µg/mL (≈ 127 µM) | Non-Toxic | inactive | inactive | inactive | inactive | inactive | inactive | inactive | 4.2 µM | inactive | inactive | inactive | inactive | inactive | inactive | inactive | – | EC50 (Vaccinia virus): 0.7 µg/mL (≈ 3.01 µM); EC50 [6]: 0.2 µg/mL (≈ 0.861 µM) |
| Nc1ncc(Br)c2c1ncn2[C@H]1C=C[C@H](O)[C@@H]1O | 8.3 µg/mL (≈ 26.7 µM) | – | inactive | inactive | inactive | inactive | inactive | inactive | inactive | 33 µM | inactive | inactive | inactive | inactive | inactive | inactive | inactive | – | IC50 [8]: 32 µg/mL (≈ 103 µM); IC50 (West Nile virus [9]): 32 µg/mL (≈ 103 µM); IC50 (Rift Valley fever virus [10]): 31 µg/mL (≈ 99.6 µM); CC50 [11]: 27 to 32 µg/mL (≈ 86.8 to 103 µM); IC50 [12]: 27 µg/mL (≈ 86.8 µM); IC50 (Dengue virus [13]): 7.2 µg/mL (≈ 23.1 µM); IC50 (Yellow fever virus [14]): 32 µg/mL (≈ 103 µM) |
| Nc1nccc2c1ncn2[C@@H]1[C@@H](O)[C@@H](O)[C@H]2C[C@H]21 | – | Non-Toxic | inactive | inactive | inactive | inactive | inactive | inactive | inactive | > 100 µM | inactive | inactive | inactive | inactive | inactive | inactive | inactive | inactive | – |
| Nc1ncc(Br)c2c1ncn2[C@@H]1[C@@H](O)[C@@H](O)[C@H]2C[C@H]21 | – | Non-Toxic | inactive | inactive | inactive | inactive | inactive | inactive | inactive | 3 µM | inactive | inactive | inactive | inactive | inactive | inactive | inactive | inactive | – |
